The values that follow come from US10233180B2, “Substituted nitrogen-containing heterocyclic derivatives, pharmaceutical compositions comprising the same and applications of antitumor thereof” (ZHEJIANG UNIVERSITY, priority 2014, dated 2019).

One assay concerns the target T1, Akt1 (Homo sapiens, UniProt P31749).
T1 construct: purchased 32-021
The assay is described as follows: AKT1/PKBα KinEASE FP Fluorescein Green Assay (fluorescence polarization kinase kit). It is filed as biochemical. Particulars: 1 h reaction, read-out: Inhibitory activities against Akt1 (IC50). The gist of the method:
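FP competition kinase assay: compounds (50 μM stock) with STK Substrate 3 and ATP, 1 h reaction at room temperature; stopped with stop/antibody mix, 4 h at room temperature, then polarization read. Inhibition derived from polarization values; IC50 calculated; triplicate wells.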
A general note: Fluorescence polarisation rises when a labelled molecule tumbles more slowly, as on binding a larger partner.

The test system of assay [1] is Human ovarian cancer cell strain OVCAR-8. The assay is described as follows: MTT assay, inhibition of tumor cell growth in vitro, 72 h. Format: cell-based. Particulars: Homo sapiens, OVCAR-8, MTT, read-out: Antitumor proliferative activities of tumor cell (IC50, μM) OVCAR-8. The gist of the method: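 OVCAR8 cells in RPMI 1640 plus FBS were seeded at 4000 cells/well and exposed for 72 h at 37 °C to compound at 50, 10, 2, 0.4 and 0.08 μM final, with 1% DMSO as blank. Inhibition was calculated from OD relative to control, and IC50 was derived by the Bliss method.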
On the technique in general: Tetrazolium dyes change colour on reduction, which living cells bring about.

Assay [2] has as its system human colon cancer cell strain HCT-116. The assay is described as above. Format: cell-based. The note with it: Homo sapiens, HCT-116, MTT, read-out: Antitumor proliferative activities of tumor cell (IC50, μM) HCT-116 (converted). In a few lines:
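Cells in RPMI 1640 with FBS, 4000 cells/well, exposed 72 h at 37 °C, 5% CO2 to final 50, 10, 2, 0.4 and 0.08 μM; 1% DMSO blank. MTT OD gives % inhibition versus control; IC50 derived by Bliss method.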

T1 sequence (P31749 whole entry): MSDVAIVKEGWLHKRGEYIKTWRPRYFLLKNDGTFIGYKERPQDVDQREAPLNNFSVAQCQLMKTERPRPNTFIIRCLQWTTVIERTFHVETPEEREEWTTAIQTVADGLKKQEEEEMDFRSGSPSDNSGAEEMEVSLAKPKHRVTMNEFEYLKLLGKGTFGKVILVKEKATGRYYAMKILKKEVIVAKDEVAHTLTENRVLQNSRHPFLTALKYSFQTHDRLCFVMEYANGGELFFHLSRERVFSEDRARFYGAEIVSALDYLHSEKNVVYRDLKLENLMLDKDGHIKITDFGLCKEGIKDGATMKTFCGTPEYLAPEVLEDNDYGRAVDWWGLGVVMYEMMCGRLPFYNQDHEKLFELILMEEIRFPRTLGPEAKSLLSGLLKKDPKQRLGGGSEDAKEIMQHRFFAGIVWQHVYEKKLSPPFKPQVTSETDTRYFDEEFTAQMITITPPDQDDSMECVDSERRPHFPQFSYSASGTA

The term IC50 denotes the concentration needed to halve the response being measured. On to `Cn1ncc(Br)c1-c1ccc(C(=O)N[C@@H]2CNCC[C@H]2c2cccc(F)c2)s1` [Compound 147, 5-(4-bromo-1-methyl-1H-pyrazol-5-yl)-N-((3S,4S)-4-(3-fluorophenyl)piperidin-3-yl)thiophene-2-formamide], for which the half-maximal inhibitory concentration (IC50) at Akt1 is 9 nM; in assay [1] it was 2.43 µM; in assay [2], 0.36 µM.

On to `Cn1ncc(-c2ccccc2)c1-c1ccc(C(=O)N[C@@H]2CNCC[C@H]2c2ccc(F)c(F)c2)s1` [Compound 148, N-((3S, 4S)-4-(3,4-difluorophenyl)piperidin-3-yl)-5-(1-methyl-4-phenyl-1H-pyrazol-5-yl)thiophene-2-formamide], for which the IC50 on Akt1 was 5 nM; in assay [1] it was 0.67 µM; in assay [2], 1.23 µM.

In the case of `CNC(=O)CC1C[C@@H](c2cccc(F)c2)[C@H](NC(=O)c2cc(Cl)c(-c3c(Cl)cnn3C)s2)CN1` (stereo partly drawn) [Compound 149, 4-chloro-5-(4-chloro-1-methyl-1H-pyrazol-5-yl)-N-((3S, 4S)-4-(3-fluorophenyl)-6-(2-(methylamido)-2-oxoethyl)piperidin-3-yl)thiophene-2-formamide], the IC50 at Akt1 is 7 nM; in assay [1] it was 3.21 µM; in assay [2], 2.56 µM.

For the compound `C[C@H]1CNC[C@@H](NC(=O)c2ccc(-c3c(Cl)cnn3C)s2)[C@@H]1c1cccc(F)c1` [Compound 150, 5-(4-chloro-1-methyl-1H-pyrazol-5-yl)-N-((3S, 4S, 5R)-4-(3-fluorophenyl)-5-methylpiperidin-3-yl)thiophene-2-formamide], the IC50 was 3 nM at Akt1, 1.19 µM in assay [1] and 4.43 µM in assay [2].

Consider `CCC[C@H]1CNC[C@@H](NC(=O)c2ccc(-c3c(Cl)cnn3C)s2)[C@@H]1c1cccc(F)c1` [Compound 151, 5-(4-chloro-1-methyl-1H-pyrazol-5-yl)-N-((3S, 4S, 5R)-4-(3-fluorophenyl)-5-propylpiperidin-3-yl)thiophene-2-formamide], for which the 50% inhibitory concentration (IC50) at Akt1 was 1 nM; in assay [1] it was 1.52 µM; in assay [2], 2.5 µM.

Consider `CNC(=O)CC1C[C@@H](c2ccc(F)c(F)c2)[C@H](NC(=O)c2ccc(-c3c(Cl)cnn3C)s2)CN1` (stereo partly drawn) [Compound 152, 5-(4-chloro-1-methyl-1H-pyrazol-5-yl)-N-((3S,4S)-4-(3,4-difluorophenyl)-6-(2-(methylamido)-2-oxoethyl)piperidin-3-yl)thiophene-2-formamide], for which the IC50 was 0.6 nM at Akt1, 1.41 µM in assay [1] and 2.82 µM in assay [2].
